Assay results taken from US20150315211A1, “SMALL MOLECULES FOR THE MODULATION OF MCL-1 AND METHODS OF MODULATING CELL DEATH, CELL DIVISION, CELL DIFFERENTIATION AND METHODS OF TREATING DISORDERS” (priority 2010, published 2015).
Like-named read-outs stand apart in the source and are kept apart here.

Columns and labels:
[1] = test system: MCL-1ΔNΔC; assay: High-throughput competitive FP binding screen, FITC-MCL-1 SAHB/MCL-1ΔNΔC interaction
[2] = biological target: BCL-XLΔC (Homo sapiens, UniProt Q07817); assay: High-throughput competitive FP binding screen, FITC-BAD BH3/BCL-XLΔC interaction
BCL-XLΔC, sequence (Q07817 1-212 limits assumed, stated change not applied): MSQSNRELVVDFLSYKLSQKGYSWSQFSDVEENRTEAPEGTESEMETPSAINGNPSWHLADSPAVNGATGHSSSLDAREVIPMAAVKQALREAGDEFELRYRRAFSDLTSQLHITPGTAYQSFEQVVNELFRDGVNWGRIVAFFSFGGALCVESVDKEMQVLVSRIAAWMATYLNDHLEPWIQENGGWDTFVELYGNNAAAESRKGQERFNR

[3] = biological target: MCL-1ΔNΔC (Homo sapiens, UniProt Q07820); assay: High-throughput competitive FP binding screen, FITC-MCL-1 SAHB/MCL-1ΔNΔC interaction; set-up: the C-terminal alpha-helix was deleted from each of these constructs; GST (N, cleaved yes); made in house
MCL-1ΔNΔC (Homo sapiens, UniProt Q07820), sequence (Q07820 172-320 limits assumed, stated change not applied): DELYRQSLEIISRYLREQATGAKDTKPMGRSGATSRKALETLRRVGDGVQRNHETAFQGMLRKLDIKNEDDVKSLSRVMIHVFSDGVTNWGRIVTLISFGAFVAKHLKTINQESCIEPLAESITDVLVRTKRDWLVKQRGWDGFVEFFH

[4] = selectivity for MCL-1ΔNΔC over BCL-XLΔC targeting (BCL-XL % Bound minus MCL-1 % Bound)
[5] = FITC-BAD BH3/BCL-XLΔC interaction pair, competitive FP screen
[6] = FITC-MCL-1 SAHB/MCL-1ΔNΔC interaction pair, competitive FP screen

SMILES | Spec Values [1] | BCL-XL % Bound [2] [%] | MCL-1% Bound [3] [%] | Spec Values [1, 4] | BCL-XL % Bound [2, 5] [%] | MCL-1% Bound [3, 6] [%]
Cc1cc2c(C(C)C)c(O)c(O)c(C=O)c2c(O)c1-c1c(C)cc2c(C(C)C)c(O)c(O)c(C=O)c2c1O.[Na+].[Na+] | 97.07 | 101 | 3.955 | – | – | –
O=C(/C=C/c1ccco1)Nc1ccc(Br)cc1 | – | – | – | 48.95 | 96.9 | 47.95
Cc1cc(NC(=O)/C=C/c2ccco2)n(-c2nc3ccccc3n2Cc2cccc(Oc3ccccc3)c2)n1 | – | – | – | 48.1 | 104.4 | 56.33
Cc1ccc(/C=C/C(=O)N2CCN(C(c3ccccc3)c3ccccc3)CC2)o1 | – | – | – | 48.08 | 103.2 | 55.15
O=C(/C=C/c1ccco1)Nc1ccc2ccccc2c1 | – | – | – | 48.07 | 112.7 | 64.64
Cc1ccc(/C=C2\C(=O)N(c3ccccc3)c3ccccc32)o1 | – | – | – | 47.36 | 110.1 | 62.72
COc1ccc(-c2nc3scc(CCNC(=O)/C=C/c4ccco4)n3n2)cc1 | – | – | – | 46.24 | 86.75 | 40.51
O=C(/C=C/c1ccco1)Nc1cccc(-c2nc3ccccc3o2)c1 | – | – | – | 45.91 | 112 | 66.09
O=C(/C=C/c1ccco1)NCc1ccccc1 | – | – | – | 45.66 | 101.8 | 56.1
CN(Cc1ccc(-c2ccc(Br)cc2)o1)C(=O)c1ccc(S(N)(=O)=O)cc1 | – | – | – | 45.66 | 115.2 | 69.53
Cc1ccc(CN(C)C(=O)c2ccccc2OCCOc2ccccc2)o1 | – | – | – | 45.38 | 114.2 | 68.8
CC1CCN(C2=NN3C(=N)C(Cc4ccc(SCc5ccco5)o4)C(=O)N=C3S2)CC1 (stereo not shown) | – | – | – | 70.38 | 84.68 | 14.3
Cc1ccccc1OCC1=NN2C(=N)/C(=C\c3cccn3-c3cccc(Cl)c3)C(=O)N=C2S1 | – | – | – | 67.61 | 92.89 | 25.28
Cc1ccccc1OCC1=NN2C(=N)/C(=C\c3ccc(SCc4ccco4)o3)C(=O)N=C2S1 | – | – | – | 54.65 | 73.83 | 19.18
CS(=O)(=O)C1=NN2C(=N)/C(=C\c3ccc(-c4ccc(Cl)cc4)o3)C(=O)N=C2S1 | – | – | – | 49.33 | 82.61 | 33.28
CCCCSC1=C(C#N)C(=O)NC(c2ccc(OC)cc2)S1 (stereo not shown) | – | – | – | 74.73 | 99.33 | 24.59
CCCCSC1=C(C#N)C(=O)NC(c2ccco2)S1 (stereo not shown) | – | – | – | 73.94 | 92.91 | 18.96
CCSC1=C(C#N)C(=O)NC(c2ccc(O)cc2)S1 (stereo not shown) | – | – | – | 69.65 | 84.82 | 15.17
C=CCN1C(=O)/C(=C\c2ccc(OC)cc2)C(=O)NC1=S | 76 | 95.09 | 19.08 | – | – | –

SMILES | Spec Values [1] | BCL-XL % Bound [2] [%] | MCL-1% Bound [3] [%] | Spec Values [1, 4] | BCL-XL % Bound [2, 5] [%] | MCL-1% Bound [3, 6] [%]
CCN1C(=O)C(=Cc2ccc(O)c(I)c2)C(=O)N(CC)C1=S | 61.04 | 100.4 | 39.32 | – | – | –
C=CCN1C(=O)/C(=C\c2ccc(N(CC)CC)cc2)C(=O)NC1=S | 60.35 | 102.2 | 41.82 | – | – | –
Cc1sc(-n2c(C)cc(C=C3C(=O)NC(=S)NC3=O)c2C)c(C#N)c1C | 56.82 | 102 | 45.2 | – | – | –
CCOc1cc(C=C2C(=O)N(C)C(=S)N(C)C2=O)ccc1OC(C)C(=O)O (stereo not shown) | 56.22 | 98.2 | 41.99 | – | – | –
CCN1C(=O)C(=Cc2cccn2C)C(=O)N(CC)C1=S | 53.66 | 105.7 | 52.01 | – | – | –
CSc1ncc(/C=C2/C(=O)NC(=O)N(C3CCCCC3)C2=O)cn1 | 52.58 | 99 | 46.42 | – | – | –
O=C1NC(=O)C(=Cc2ccc(Sc3ccc(Cl)cc3)o2)C(=O)N1 | 52.25 | 92.22 | 39.96 | – | – | –
O=C1NC(=O)N(CCc2ccc(F)cc2)C(=O)/C1=C\c1ccc(O)c(O)c1 | 50.75 | 81.34 | 30.59 | – | – | –
C=CCN1C(=O)/C(=C\c2ccc(N3CCOCC3)cc2C)C(=O)NC1=S | 49.65 | 82.66 | 33.01 | – | – | –
Cc1ccccc1C=C1C(=O)N(C)C(=S)N(C)C1=O | 48.03 | 99.22 | 51.19 | – | – | –
CCc1ccc(C=C2C(=O)N(C)C(=S)N(C)C2=O)cc1 | 45.4 | 100.9 | 55.45 | – | – | –
O=C(O)C(Cc1ccccc1)N1C(=O)/C(=C/C=C/c2ccco2)SC1=S (stereo not shown) | 97.44 | 87.83 | −9.611 | – | – | –
Nc1c(C(=O)NCc2ccco2)c2nc3ccccc3nc2n1CCc1ccccc1F | 93.2 | 99.9 | 6.6 | – | – | –
O=c1c(O)c(-c2ccc(O)c(O)c2)oc2cc(O)cc(O)c12 [drawing 15] | – | – | – | – | 105.3 | 16.69
CC1=C(CC/C(C)=C/CCC2C=CC(C3=CC(=O)OC3O)OC2O)C(C)(C)CCC1 (stereo not shown) [drawing 17] | 71.82 | – | – | – | – | –
CCOc1cc(C(Nc2cccnc2)c2ccc3cccnc3c2O)ccc1O (stereo not shown) [drawing 35] | – | – | – | – | – | −0.3
O=c1oc2c(O)c(O)cc3c(=O)oc4c(O)c(O)cc1c4c23 [drawing 165] | – | – | – | 89.32 | – | 1.26
CC1=C(CC/C(C)=C/CCC2C=CC(C3=CC(=O)OC3O)OC2O)C(C)(C)CCC1 (stereo not shown) [drawing 207] | 71.82 | – | – | – | – | –
